Drawing on ChEMBL document CHEMBL1135350, “Synthesis of an arabinofuranosyl disaccharide photoaffinity probe for arabinosyltransferase activity in Mycobacterium tuberculosis” (Bioorg Med Chem Lett, 2002), this text covers Km and Vmax (pM min-1 mg-1) for one molecule.

This experiment deals with Mycobacterium tuberculosis. As to the kind of experiment: Enzyme kinetic constant of compound for Arabinosyltransferase in Mycobacterium tuberculosis was determined.

Turning to `[N-]=[N+]=Nc1cccc2c(S(=O)(=O)NCCOC3O[C@H](COC4O[C@H](CO)[C@@H](O)[C@H]4O)[C@@H](O)[C@H]3O)cccc12` (some centres not stated), the Km (usually the substrate concentration at which the rate is half of its maximum) came out at 3.07 mM and the Vmax (pM min-1 mg-1) was found to be 4.26.
